This is an account of results in patent publication US10548898B2, “Quinazoline compounds” (Gilead Sciences, Inc., priority 2014, dated 2020).

Where two headings read alike, the source gives them in different places.

Assay type in all cases: cell-based
The subject of assay [1] is HIV-1 HBX2 (wild type). The assay is described as follows: High throughput cytopathic effect assay in MT-4 cells, wild type HIV-1. An excerpt:
(§1) Compounds were screened in a miniaturized, high throughput cytopathic effect assay for activity against HIV-1 HBX2 (wild type) and HIV-1 reverse transcriptase mutants K103N and Y181C. In Tables 1 and 2 below. “w.t.” refers to results of the tested compounds run with the wildtype 1 and “w.t, assay 2” refers results of the tested compounds run with the wildtype on the same day as the testing of the compounds with the mutants. Thus, “w.t, assay 2” was run under the same conditions as the testing of the compounds with the mutants and provides a direct comparison with the results from the testing with the mutants.
(§2) Ten-point serial dilutions of compounds with half-log step size were generated in DMSO. AZT ([…]) was used as the positive control and DMSO as the negative control. The Echo acoustic dispenser was used to deliver 200 nL of serially diluted compound into sterile 384 well tissue culture assay plates. Two million MT-4 cells were incubated with each of the 3 viruses at MOI of 0.0005 in separate 1 mL infection tubes for 1 hour at 37° C. The cells were diluted in cell culture medium (RPMI+10% FBS) to 50.000 cells/mL. The infected cells were added to 384 well assay plates containing serially dilute compounds. Assay plates were incubated for 5 days in a humidified incubator set at 37° C. and 5% CO2. To measure the cytopathic effect of HIV, 40 μL Cell TiterGlo was added to each well and the resulting luminescence signal is read with the Envision plate reader (Perkin Elmer). Data were normalized to positive and negative controls in each plate and expressed as % CPE Protection. EC50 values were defined as the compound concentration that caused a 50% decrease in luminescence signal, and were calculated by non-linear regression using Pipeline Pilot software by applying a four parameter fit equation (Accelrys, San Diego, Calif.).
On the technique in general: Cytopathic effects are the visible damage that an infection or toxin causes in cultured cells.

The subject of assay [2] is HIV-1 reverse transcriptase mutant K103N. The assay is described as follows: High throughput cytopathic effect assay in MT-4 cells, K103N mutant. Particulars: for EC50: Human immunodeficiency virus 1, MT4, 120 h, read-out: MT4 EC50 (nM) against K103N; for FC against mutant K103N: fold change of MT4 EC50 versus w.t. assay 2.
Text: as §1, §2

Assay [3] relates to HIV-1 reverse transcriptase mutant Y181C. The assay is described as follows: High throughput cytopathic effect assay in MT-4 cells, Y181C mutant. Particulars: for EC50: Human immunodeficiency virus 1, MT4, 120 h, read-out: MT4 EC50 (nM) against Y181C; for FC against mutant Y181C: fold change of MT4 EC50 versus w.t. assay 2.
Text: as §1, §2

Where [4] appears, read: Human immunodeficiency virus 1, MT4, 120 h, MT-4 cells, 5 days, cytopathic effect, Cell TiterGlo, read-out: MT4 EC50 (nM) against w.t.
Setting [5] is: Human immunodeficiency virus 1, MT4, read-out: MT4 EC50 (nM) against w.t. assay 2.

In general, EC50 refers to the midpoint of the concentration-response curve. Regarding `CNc1nc(Nc2ccc(C#N)cc2)nc2c(-c3c(C)cc(/C=C/C#N)cc3C)cccc12` [Compound 30, (E)-4-((8-(4-(2-Cyanovinyl)-2,6-dimethylphenyl)-4-(methylamino)quinazolin-2-yl)amino)benzonitrile], the EC50 in assay [1] (setting [4]) was 15.9 nM; in assay [1] (setting [5]), 13 nM; in assay [2] it was 17 nM; in assay [3] it was 55.6 nM. In addition, the “FC against mutant K103N” value in assay [2] worked out at 1.3. In addition, the “FC against mutant Y181C” value in assay [3] is recorded as 4.3.

`Cc1cc(/C=C/C#N)cc(C)c1-c1cc(Br)cc2c(N)nc(Nc3ccc(C#N)cc3)nc12` [Compound 25, (E)-4-((4-Amino-6-bromo-8-(4-(2-cyanovinyl)-2,6-dimethylphenyl)quinazolin-2-yl)amino)benzonitrile]: the EC50 stood at 39.1 nM in assay [1] (setting [4]), 28.3 nM in assay [1] (setting [5]), 44.1 nM in assay [2] and 160 nM in assay [3]. Further, the “FC against mutant K103N” value in assay [2] was determined as 1.6. In assay [3], the “FC against mutant Y181C” value stood at 5.6.

For the compound `Cc1cc(/C=C/C#N)cc(C)c1-c1cc(F)cc2c(N)nc(Nc3ccc(C#N)nn3)nc12` [Compound 27, (E)-6-((4-Amino-8-(4-(2-cyanovinyl)-2,6-dimethylphenyl)-6-fluoroquinazolin-2-yl)amino)pyridazine-3-carbonitrile], the EC50 was found to be 6.3 nM in assay [1] (setting [4]), 3.8 nM in assay [1] (setting [5]), 5.3 nM in assay [2] and 400 nM in assay [3]. Also, the “FC against mutant K103N” value in assay [2] stood at 1.4. Further, in assay [3], the “FC against mutant Y181C” value is on record as 105.9.

As to `Cc1cc(/C=C/C#N)cc(C)c1-c1cc(F)cc2c(N)nc(Nc3ccc(C#N)cn3)nc12` [Compound 20, (E)-6-((4-Amino-8-(4-(2-cyanovinyl)-2,6-dimethylphenyl)-6-fluoroquinazolin-2-yl)amino)nicotinonitrile], the EC50 in assay [1] (setting [4]) was 7 nM; in assay [1] (setting [5]), 6.6 nM; in assay [2], 7.1 nM; in assay [3], 69.9 nM. Further, the “FC against mutant K103N” value in assay [2] worked out at 1.1. Moreover, the “FC against mutant Y181C” value in assay [3] was found to be 10.5.

In the case of `Cc1cc(/C=C/C#N)cc(C)c1-c1cccc2c(NCC3CC3)nc(Nc3ccc(C#N)cc3)nc12` [Compound 6, (E)-4-((8-(4-(2-Cyanovinyl)-2,6-dimethylphenyl)-4-((cyclopropylmethyl)amino)quinazolin-2-yl)amino)benzonitrile], the EC50 in assay [1] (setting [4]) was 99.3 nM; in assay [1] (setting [5]) it was 82.6 nM; in assay [2], 81.1 nM; in assay [3] it was 470 nM. Further, the “FC against mutant K103N” value in assay [2] worked out at 1.0. The “FC against mutant Y181C” value in assay [3] worked out at 5.7.

`CCCCNc1nc(Nc2ccc(C#N)cc2)nc2c(-c3c(C)cc(/C=C/C#N)cc3C)cccc12` [Compound 7, (E)-4-((4-(Butylamino)-8-(4-(2-cyanovinyl)-2,6-dimethylphenyl)quinazolin-2-yl)amino)benzonitrile]: the EC50 in assay [1] (setting [4]) is 122 nM; in assay [1] (setting [5]) it was 117 nM; in assay [2], 130 nM; in assay [3], over 500 nM. Besides, the “FC against mutant K103N” value in assay [2] was 1.1. Besides, the “FC against mutant Y181C” value in assay [3] is reported as over 4.3.

`Cc1cc(/C=C/C#N)cc(C)c1-c1cc(F)cc2c(N)nc(Nc3cnc(C#N)cn3)nc12` [Compound 26, (E)-5-((4-Amino-8-(4-(2-cyanovinyl)-2,6-dimethylphenyl)-6-fluoroquinazolin-2-yl)amino)pyrazine-2-carbonitrile]: the EC50 was 2.7 nM in assay [1] (setting [4]), 2 nM in assay [1] (setting [5]), 2.4 nM in assay [2] and 27.2 nM in assay [3]. For the same compound, in assay [2], the “FC against mutant K103N” value stood at 1.2. Besides, the “FC against mutant Y181C” value in assay [3] was 13.5.

Take `Cc1cc(-c2c(C)cc(/C=C/C#N)cc2C)c2nc(Nc3ccc(C#N)cn3)nc(N)c2c1` [Compound 21, (E)-6-((4-Amino-8-(4-(2-cyanovinyl)-2,6-dimethylphenyl)-6-methylquinazolin-2-yl)amino)nicotinonitrile]: the EC50 is 10.1 nM in assay [1] (setting [4]), 10.6 nM in assay [1] (setting [5]), 10.8 nM in assay [2] and 187 nM in assay [3]. In assay [2], the “FC against mutant K103N” value came to 1.0. Also, in assay [3], the “FC against mutant Y181C” value was 17.6.

As to `Cc1cc(/C=C/C#N)cc(C)c1-c1cccc2c(N)nc(Nc3ccc(C#N)c(C)n3)nc12` [Compound 16, (E)-6-((4-Amino-8-(4-(2-cyanovinyl)-2,6-dimethylphenyl)quinazolin-2-yl)amino)-2-methylnicotinonitrile], the EC50 in assay [1] (setting [4]) amounted to 6.3 nM; in assay [1] (setting [5]) it was 7.5 nM; in assay [2], 12.5 nM; in assay [3] it was 42.6 nM. Further, the “FC against mutant K103N” value in assay [2] was 1.7. Further, the “FC against mutant Y181C” value in assay [3] was determined as 5.7.

On to `COc1cc(/C=C/C#N)cc(OC)c1-c1cccc2cnc(Nc3ccc(C#N)cc3)nc12` [Compound 33, (E)-44-((8-(4-(2-Cyanovinyl)-2,6-dimethoxyphenyl)quinazolin-2-yl)amino)benzonitrile], for which the EC50 in assay [1] (setting [4]) was 2.1 nM; in assay [1] (setting [5]), 1.5 nM; in assay [2], 3.2 nM; in assay [3], 12.3 nM. The “FC against mutant K103N” value in assay [2] amounted to 2.1. The “FC against mutant Y181C” value in assay [3] was 7.9.

Take `CC(C#N)=Cc1cc(C)c(-c2cccc3c(N)nc(Nc4ccc(C#N)cc4)nc23)c(C)c1` (racemic) [Compound 40, 4-((4-Amino-8-(4-(2-cyanoprop-1-en-1-yl)-2,6-dimethylphenyl)quinazolin-2-yl)amino)benzonitrile]: the EC50 in assay [1] (setting [4]) came to 6.8 nM; in assay [1] (setting [5]), 9.9 nM; in assay [2], 16.3 nM; in assay [3] it was 36.1 nM. Besides, the “FC against mutant K103N” value in assay [2] came to 1.7. In addition, in assay [3], the “FC against mutant Y181C” value came to 3.7.

Turning to `COc1ccc(-c2c(C)cc(/C=C/C#N)cc2C)c2nc(Nc3ccc(C#N)cn3)nc(N)c12` [Compound 29, (E)-6-((4-Amino-8-(4-(2-cyanovinyl)-2,6-dimethylphenyl)-5-methoxyquinazolin-2-yl)amino)nicotinonitrile], the EC50 was 22.1 nM in assay [1] (setting [4]), 18.6 nM in assay [1] (setting [5]), 33.4 nM in assay [2] and over 500 nM in assay [3]. For the same compound, the “FC against mutant K103N” value in assay [2] is 1.8. For the same compound, in assay [3], the “FC against mutant Y181C” value is over 26.9.

As for `Cc1cc(/C=C/C#N)cc(C)c1-c1cc([N+](=O)[O-])cc2c(N)nc(Nc3ccc(C#N)cn3)nc12` [Compound 22, (E)-6-((4-Amino-8-(4-(2-cyanovinyl)-2,6-dimethylphenyl)-6-nitroquinazolin-2-yl)amino)nicotinonitrile], the EC50 is 69.3 nM in assay [1] (setting [4]), 87.5 nM in assay [1] (setting [5]), 101 nM in assay [2] and over 500 nM in assay [3]. For the same compound, the “FC against mutant K103N” value in assay [2] was 1.2. Moreover, the “FC against mutant Y181C” value in assay [3] is given as over 5.7.
